In PMC10116469 (Nature Communications, 2023):

Legend:
[1] = target: MPXV VP39 2′-O-RNA methyltransferase (Monkeypox virus, UniProt A0A7H0DN74); assay: biochemical
[2] = tested on: SARS-CoV-2 nsp14 N7-MTase; settings: cited from earlier work
[3] = IC50, individual fit of data set 1
[4] = IC50, individual fit of data set 2
[5] = IC50 average (averaged IC50 values from independent measurement)

Chain of MPXV VP39 2′-O-RNA methyltransferase (A0A7H0DN74 whole entry, looked up): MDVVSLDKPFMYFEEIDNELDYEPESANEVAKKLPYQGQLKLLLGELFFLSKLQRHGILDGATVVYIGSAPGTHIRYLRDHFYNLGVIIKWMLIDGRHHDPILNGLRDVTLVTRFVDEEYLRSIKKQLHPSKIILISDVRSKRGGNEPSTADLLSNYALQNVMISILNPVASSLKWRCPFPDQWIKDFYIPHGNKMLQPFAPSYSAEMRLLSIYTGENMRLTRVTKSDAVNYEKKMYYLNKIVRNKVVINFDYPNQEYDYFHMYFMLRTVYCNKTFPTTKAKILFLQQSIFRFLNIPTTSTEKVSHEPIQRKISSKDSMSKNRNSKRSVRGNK

| Structure (SMILES) | HillSlope, individual fit of data set 1 [1] | HillSlope, individual fit of data set 2 [1] | LogIC50, fit of all data points [1] | LogIC50, individual fit of data set 1 [1] | LogIC50, individual fit of data set 2 [1] | IC50 ([1]; IC50, fit of all data points) | IC50 [1, 3] | IC50 [1, 4] | IC50 [1, 5] | IC50 ([1]; IC50) | inhibition of SARS-CoV-2 nsp14 [2] | IC50 ([1]; IC50 (mean ± SEM)) |
| --- | --- | --- | --- | --- | --- | --- | --- | --- | --- | --- | --- | --- |
| Nc1ncnc2c1c(C#Cc1ccc3ccccc3c1)cn2[C@@H]1O[C@H](CSCC[C@H](N)C(=O)O)[C@@H](O)[C@H]1O [TO504] | -1.768 | -1.833 | -1.107 | -1.131 | -1.08 | 78.1 nM | 73.9 nM | 83.2 nM | 79 nM | – | – | – |
| Nc1ncnc2c1c(C#Cc1cccc3ccccc13)cn2[C@@H]1O[C@H](CSCC[C@H](N)C(=O)O)[C@@H](O)[C@H]1O [TO494] | -1.676 | ~ -5.860 | -0.9386 | -1.017 | ~ -0.7109 | 115 nM | 96.1 nM | – | 145 nM | – | – | – |
| C=Cc1cn([C@@H]2O[C@H](CSCC[C@H](N)C(=O)O)[C@@H](O)[C@H]2O)c2ncnc(N)c12 [TO1116] | -0.9545 | -1.033 | -0.836 | -0.8617 | -0.8127 | 146 nM | 138 nM | 154 nM | 146 nM | – | – | – |
| CCc1cn([C@@H]2O[C@H](CSCC[C@H](N)C(=O)O)[C@@H](O)[C@H]2O)c2ncnc(N)c12 [TO1111] | -1.277 | -1.517 | -1.058 | -1.122 | -0.9871 | 87.5 nM | 75.5 nM | 103 nM | 89 nM | – | – | – |
| Nc1ncnc2c1c(I)cn2[C@@H]1O[C@H](CSCC[C@H](N)C(=O)O)[C@@H](O)[C@H]1O [TO1119] | -1.304 | -1.575 | -0.8937 | -0.9194 | -0.8669 | 128 nM | 120 nM | 136 nM | – | 128 nM | – | – |
| Nc1ncnc2c1c(C#Cc1cnc3ccccc3c1)cn2[C@@H]1O[C@H](CSCC[C@H](N)C(=O)O)[C@@H](O)[C@H]1O [TO507] | -1.446 | -1.972 | -0.9412 | -0.9877 | -0.8836 | 114 nM | 103 nM | 131 nM | 117 nM | – | nanomolar inhibitors | – |
| Nc1ncnc2c1ncn2[C@@H]1O[C@H](C[C@@H](N)CC[C@H](N)C(=O)O)[C@@H](O)[C@H]1O [sinefungin, reference compound] | -0.961 | -0.8657 | 0.3693 | 0.3792 | 0.3552 | 2340 nM | 2390 nM | 2270 nM | 2330 nM | 2300 nM | – | – |
| Nc1ncnc2c1c(C#Cc1ccccc1)cn2[C@@H]1O[C@H](CSCC[C@H](N)C(=O)O)[C@@H](O)[C@H]1O [TO427] | -1.507 | -1.605 | -0.9412 | -0.9395 | -0.9422 | 114 nM | 115 nM | 114 nM | 115 nM | – | – | 115 ± 0.4 nM |
| Nc1ncnc2c1c(C#Cc1nc3ccccc3[nH]1)cn2[C@@H]1O[C@H](CSCC[C@H](N)C(=O)O)[C@@H](O)[C@H]1O [TO500] | -1.441 | -1.353 | -0.7728 | -0.7814 | -0.7635 | 169 nM | 165 nM | 172 nM | 169 nM | – | – | – |
